Assays:
Type in all cases: cell-based, human
[1] = test system: imDAPs; assay: qRT-PCR analysis of imDAP-specific markers during expansion; details: 3 μM CHIR99021 vs 0 and 1.25 μM; 5 days expansion
Method: 1. For qRT-PCR analysis of mRNA gene expression, RNA should be harvested from at least 2×10^6 cells.
2. Harvest cells, add 350 μl of buffer RLT+1% (vol/vol) β-mercaptoethanol to the well, transfer the lysate to a 1.5 ml tube, and put it immediately on ice.
3. Perform RNA extraction using the Tiangen Kit (DP430), and follow the manufacturer's protocol ‘Purification of total RNA from animal and human cells’.
4. When the RNA extraction was completed, determine the RNA concentration using a Nanodrop instrument.
5. Perform the first-strand cDNA synthesis reaction with lug of RNA using the HiScript™ II Q RT SuperMIX for qPCR (+gDNA wiper) Kit (Vazyme, #R223-01) for RT-qPCR. Follow the manufacturer's ‘First-Strand cDNA Synthesis’ protocol. This reaction would yield a 20μl product.
6. […]
8. Analyze the samples by running a quantitative PCR on the LightCycler 480 instrument using a 40× cycle two-step protocol with a 60° C., 60 sec annealing/elongation step and a 95° C., 30 sec denaturation step. […]
imDAPs were produced according to the method described in CN201910169525.0. […] When imDAPs reach 100% confluence (4-5 days), cells were passaged enzymatically with 1× TrypLE, centrifuged at 250 g for 5 minutes, counted and replaced on new VTN-coated plates (1 μg/cm^2) at a density of 1×10^5 cells/cm^2 in the expansion medium. imDAPs were continuously expanded for 6 passages. […]

[2] = test system: imDAPs; assay: imDAP maturation, cell morphology and adhesion (bright-field); details: 1 μM IWR1 for at least 3 days vs without; VTN-coated; 1% HhPLT medium
Method: were produced according to the method described in CN201910169525.0, and expanded as described in Example 10. The expanded […] were seeded on VTN-coated (1 μg/cm^2) plates at a density of 5×10^5 cells/cm^2 (Day 0), and cultured in the maturation medium ([…]) supplemented with 1 μM IWR1. MM-P used in Example 11 contained the following components: NeurobasalTM medium, 1% (v/v) Glutamax, 0.5 mM Db-cAMP sodium salt, 200 μM ascorbic acid, 20 ng/ml BDNF, 20 ng/ml GDNF, 1 ng/ml TGF-β3, 10 μM DAPT, hPLT (0.5%, 1%, 2%). MM-H used in Example 11 contained the following components: NeurobasalTM medium, 1% (v/v) Glutamax, 0.5 mM Db-cAMP sodium salt, 200 μM ascorbic acid, 20 ng/ml BDNF, 20 ng/ml GDNF, 1 ng/ml TGF-β3, […], HhPLT (0.5%, 1%, 2%). MM-B used in Example 11 contained the following components: Neurobasal, 1% (v/v) Glutamax, 0.5 mM Db-cAMP sodium salt, 200 μM ascorbic acid, 20 ng/ml BDNF, 20 ng/ml GDNF, 1 ng/ml TGF-β 3, 10 μM DAPT, 2% (v/v) B27 (50×) (as control). The above HhPLT was produced from hPLT as follows. The hPLT was centrifuged at 3000 g for 30 min at 4° C. to obtain the supernatant, which was heated to 56° C. for 30 min. […] Cells were collected and counted by Vi-cell cytometer. The cells were analyzed by RT-qPCR for EN1, LMX1A, FOXA2, NURR1, SOX6 and TH gene expression. […]

[3] = test system: imDAPs; assay: qRT-PCR analysis of mDA maturation associated markers; details: 1 μM IWR1 vs without IWR1; day 7
Method: 1. For qRT-PCR analysis of mRNA gene expression, RNA should be harvested from at least 2×10^6 cells. 2. Harvest cells, add 350 μl of buffer RLT+1% (vol/vol) β-mercaptoethanol to the well, transfer the lysate to a 1.5 ml tube, and put it immediately on ice. 3. Perform RNA extraction using the Tiangen Kit (DP430), and follow the manufacturer's protocol 'Purification of total RNA from animal and human cells'. 4. When the RNA extraction was completed, determine the RNA concentration using a Nanodrop instrument. 5. Perform the first-strand cDNA synthesis reaction with lug of RNA using the HiScriptTM II Q RT SuperMIX for qPCR (+gDNA wiper) Kit (Vazyme, #R223-01) for RT-qPCR. Follow the manufacturer's 'First-Strand cDNA Synthesis' protocol. This reaction would yield a 20μl product. 6. Dilute the 10 μl cDNA product in 80 μl of nuclease-free water. 7. […] Analyze the samples by running a quantitative PCR on the LightCycler 480 instrument using a 40× cycle two-step protocol with a 60° C., 60 sec annealing/elongation step and a 95° C., 30 sec denaturation step. […] Cells were collected and counted by Vi-cell cytometer. The cells were analyzed by RT-qPCR for EN1, LMX1A, FOXA2, NURR1, SOX6 and TH gene expression. […]

Row | SMILES | mDAP marker expression (EN1, LMX1A, FOXA2), qRT-PCR (FIG. 1C) [1] | cell morphology on day 7 during maturation (FIG. 7D) [2] | expression of NURR1, SOX6 and TH, qRT-PCR (FIG. 7E) [3]
1 | Cc1cnc(-c2cnc(NCCNc3ccc(C#N)cn3)nc2-c2ccc(Cl)cc2Cl)[nH]1 [CHIR99021] | allowed better maintenance of mDAP marker expression | – | –
2 | O=C(Nc1cccc2cccnc12)c1ccc(N2C(=O)[C@@H]3[C@H](C2=O)[C@@H]2C=C[C@H]3C2)cc1 [IWR1] | – | showed more obvious neural fibers | increased
